{"source": "BindingDB's records for PubMed 1352553", "about": "(University of North Carolina, 1992)", "key": {"5'-nucleotidase": {"molecular_target": "5'-nucleotidase (Rattus norvegicus, UniProt P21588)"}, "[1]": {"molecular_target": "Bombesin receptor subtype-3 (Rattus norvegicus, UniProt Q8K418)", "sequence (Q8K418 whole entry)": "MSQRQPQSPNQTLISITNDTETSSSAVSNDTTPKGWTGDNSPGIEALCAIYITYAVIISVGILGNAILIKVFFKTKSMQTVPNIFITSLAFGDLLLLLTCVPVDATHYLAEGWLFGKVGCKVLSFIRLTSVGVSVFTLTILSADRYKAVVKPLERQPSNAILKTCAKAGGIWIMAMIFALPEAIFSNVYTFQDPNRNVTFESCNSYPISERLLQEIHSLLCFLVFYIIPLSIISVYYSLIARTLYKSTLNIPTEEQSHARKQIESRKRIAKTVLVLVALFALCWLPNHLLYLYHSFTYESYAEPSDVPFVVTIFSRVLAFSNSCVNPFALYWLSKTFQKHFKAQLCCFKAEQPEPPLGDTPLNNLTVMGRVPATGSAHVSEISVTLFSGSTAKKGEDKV"}, "[2]": {"molecular_target": "Gamma-aminobutyric acid receptor subunit alpha-1 (Rattus norvegicus, UniProt P62813)", "sequence (P62813 whole entry)": "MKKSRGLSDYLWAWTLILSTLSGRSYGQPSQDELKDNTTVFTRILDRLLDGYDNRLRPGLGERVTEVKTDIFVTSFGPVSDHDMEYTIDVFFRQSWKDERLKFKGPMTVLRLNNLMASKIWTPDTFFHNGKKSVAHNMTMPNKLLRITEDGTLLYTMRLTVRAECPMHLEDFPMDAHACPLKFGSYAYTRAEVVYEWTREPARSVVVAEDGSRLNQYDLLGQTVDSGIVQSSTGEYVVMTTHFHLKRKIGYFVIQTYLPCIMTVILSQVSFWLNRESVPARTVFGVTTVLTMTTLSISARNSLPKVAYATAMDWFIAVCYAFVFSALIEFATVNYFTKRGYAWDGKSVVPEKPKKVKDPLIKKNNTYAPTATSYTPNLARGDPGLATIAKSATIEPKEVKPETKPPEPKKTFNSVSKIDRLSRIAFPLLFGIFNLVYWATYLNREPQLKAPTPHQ"}, "[3]": {"molecular_target": "Voltage-dependent L-type calcium channel subunit alpha-1C (Rattus norvegicus, UniProt P22002)"}, "[4]": {"molecular_target": "Beta-2 adrenergic receptor (Rattus norvegicus, UniProt P10608)"}, "[5]": {"molecular_target": "Phosphatidylinositol 3,4,5-trisphosphate 5-phosphatase 2 (Rattus norvegicus, UniProt Q9WVR3)", "sequence (Q9WVR3 whole entry)": "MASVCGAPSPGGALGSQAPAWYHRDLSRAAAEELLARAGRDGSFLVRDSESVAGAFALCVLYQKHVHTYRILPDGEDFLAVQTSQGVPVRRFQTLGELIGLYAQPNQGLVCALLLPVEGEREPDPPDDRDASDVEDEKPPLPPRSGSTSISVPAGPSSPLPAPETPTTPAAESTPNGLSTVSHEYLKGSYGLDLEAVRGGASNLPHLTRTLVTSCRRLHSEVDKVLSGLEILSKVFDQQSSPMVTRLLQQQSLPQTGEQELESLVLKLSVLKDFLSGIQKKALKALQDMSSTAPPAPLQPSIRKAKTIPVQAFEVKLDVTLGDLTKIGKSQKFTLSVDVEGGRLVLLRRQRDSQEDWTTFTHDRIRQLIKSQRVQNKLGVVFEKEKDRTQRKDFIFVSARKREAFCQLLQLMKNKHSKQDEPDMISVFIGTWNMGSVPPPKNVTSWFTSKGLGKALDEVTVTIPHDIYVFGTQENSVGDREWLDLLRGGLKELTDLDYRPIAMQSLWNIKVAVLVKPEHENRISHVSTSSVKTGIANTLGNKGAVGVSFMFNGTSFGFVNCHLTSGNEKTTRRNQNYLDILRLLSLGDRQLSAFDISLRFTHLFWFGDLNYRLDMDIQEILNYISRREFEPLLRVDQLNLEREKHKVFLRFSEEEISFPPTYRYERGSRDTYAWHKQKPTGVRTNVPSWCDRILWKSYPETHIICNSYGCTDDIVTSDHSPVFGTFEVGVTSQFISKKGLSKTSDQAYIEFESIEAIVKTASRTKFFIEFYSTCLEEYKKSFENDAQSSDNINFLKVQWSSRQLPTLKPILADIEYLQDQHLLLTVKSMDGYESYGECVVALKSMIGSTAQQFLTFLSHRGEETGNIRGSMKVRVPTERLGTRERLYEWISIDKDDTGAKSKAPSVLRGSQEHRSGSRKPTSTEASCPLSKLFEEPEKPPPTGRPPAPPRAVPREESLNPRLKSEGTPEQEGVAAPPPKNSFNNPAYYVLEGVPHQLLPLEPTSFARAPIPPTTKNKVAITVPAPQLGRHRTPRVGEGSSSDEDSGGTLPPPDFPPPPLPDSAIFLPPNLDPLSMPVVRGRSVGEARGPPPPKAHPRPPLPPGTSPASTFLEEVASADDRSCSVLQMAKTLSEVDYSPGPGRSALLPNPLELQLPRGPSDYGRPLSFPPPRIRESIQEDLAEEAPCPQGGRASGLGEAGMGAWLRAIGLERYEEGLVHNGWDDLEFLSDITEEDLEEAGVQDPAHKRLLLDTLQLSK"}, "Adenylate cyclase type 3": {"molecular_target": "Adenylate cyclase type 3 (Rattus norvegicus, UniProt P21932)"}, "[6]": {"molecular_target": "Pro-epidermal growth factor (Rattus norvegicus, UniProt P07522)"}, "Beta-nerve growth factor": {"molecular_target": "Beta-nerve growth factor (Rattus norvegicus, UniProt P25427)"}, "[7]": {"molecular_target": "Cholecystokinin receptor type A (Rattus norvegicus, UniProt P30551)"}, "Natriuretic peptides A": {"molecular_target": "Natriuretic peptides A (Rattus norvegicus, UniProt P01161)", "sequence (P01161 whole entry)": "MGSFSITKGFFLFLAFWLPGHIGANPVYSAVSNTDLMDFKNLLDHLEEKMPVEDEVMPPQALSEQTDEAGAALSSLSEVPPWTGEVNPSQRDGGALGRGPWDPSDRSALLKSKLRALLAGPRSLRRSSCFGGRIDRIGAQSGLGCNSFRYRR"}, "Angiotensinogen": {"molecular_target": "Angiotensinogen (Rattus norvegicus, UniProt P01015)", "sequence (P01015 whole entry)": "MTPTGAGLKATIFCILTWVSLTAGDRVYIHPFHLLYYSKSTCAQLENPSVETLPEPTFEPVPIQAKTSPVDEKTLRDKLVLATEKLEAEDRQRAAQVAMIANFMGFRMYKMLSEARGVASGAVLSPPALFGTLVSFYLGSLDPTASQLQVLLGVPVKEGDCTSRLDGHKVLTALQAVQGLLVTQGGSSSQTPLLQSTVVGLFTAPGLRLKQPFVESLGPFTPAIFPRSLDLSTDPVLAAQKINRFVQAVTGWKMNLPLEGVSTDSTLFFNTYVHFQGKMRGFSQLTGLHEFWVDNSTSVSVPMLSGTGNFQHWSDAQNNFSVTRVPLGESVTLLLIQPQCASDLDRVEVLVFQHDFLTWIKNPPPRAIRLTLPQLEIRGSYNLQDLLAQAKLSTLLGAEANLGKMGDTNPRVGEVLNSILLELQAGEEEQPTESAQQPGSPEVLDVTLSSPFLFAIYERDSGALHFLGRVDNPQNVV"}, "Glutamate receptor 3": {"molecular_target": "Glutamate receptor 3 (Rattus norvegicus, UniProt P19492)", "sequence (P19492 whole entry)": "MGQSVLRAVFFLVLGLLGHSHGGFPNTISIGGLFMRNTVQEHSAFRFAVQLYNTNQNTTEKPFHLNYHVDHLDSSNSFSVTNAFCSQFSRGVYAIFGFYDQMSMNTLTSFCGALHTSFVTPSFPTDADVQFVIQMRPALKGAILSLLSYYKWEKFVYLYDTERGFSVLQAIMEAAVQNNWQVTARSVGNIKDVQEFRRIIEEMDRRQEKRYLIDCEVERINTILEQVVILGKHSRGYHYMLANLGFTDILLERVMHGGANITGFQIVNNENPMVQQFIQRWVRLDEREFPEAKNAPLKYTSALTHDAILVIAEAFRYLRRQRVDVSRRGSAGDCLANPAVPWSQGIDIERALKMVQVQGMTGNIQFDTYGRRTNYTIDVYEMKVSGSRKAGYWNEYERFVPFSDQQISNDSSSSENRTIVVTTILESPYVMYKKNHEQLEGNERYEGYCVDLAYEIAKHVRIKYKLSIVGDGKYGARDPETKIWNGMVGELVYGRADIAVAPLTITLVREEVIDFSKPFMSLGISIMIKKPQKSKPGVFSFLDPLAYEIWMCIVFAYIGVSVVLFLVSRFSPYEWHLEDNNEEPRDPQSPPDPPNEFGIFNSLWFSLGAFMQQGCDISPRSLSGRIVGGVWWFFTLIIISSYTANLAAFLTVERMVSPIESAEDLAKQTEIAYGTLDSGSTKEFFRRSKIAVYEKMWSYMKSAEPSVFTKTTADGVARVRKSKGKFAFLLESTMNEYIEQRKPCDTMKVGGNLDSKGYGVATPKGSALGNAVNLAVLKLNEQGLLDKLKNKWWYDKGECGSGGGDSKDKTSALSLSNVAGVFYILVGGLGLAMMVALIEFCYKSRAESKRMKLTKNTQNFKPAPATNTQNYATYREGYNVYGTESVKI"}, "VIP peptides": {"molecular_target": "VIP peptides (Rattus norvegicus, UniProt P01283)"}, "[8]": {"molecular_target": "Gamma-aminobutyric acid (GABA) B receptor 1 (Rattus norvegicus, UniProt Q6MFX8)", "sequence (Q6MFX8 whole entry)": "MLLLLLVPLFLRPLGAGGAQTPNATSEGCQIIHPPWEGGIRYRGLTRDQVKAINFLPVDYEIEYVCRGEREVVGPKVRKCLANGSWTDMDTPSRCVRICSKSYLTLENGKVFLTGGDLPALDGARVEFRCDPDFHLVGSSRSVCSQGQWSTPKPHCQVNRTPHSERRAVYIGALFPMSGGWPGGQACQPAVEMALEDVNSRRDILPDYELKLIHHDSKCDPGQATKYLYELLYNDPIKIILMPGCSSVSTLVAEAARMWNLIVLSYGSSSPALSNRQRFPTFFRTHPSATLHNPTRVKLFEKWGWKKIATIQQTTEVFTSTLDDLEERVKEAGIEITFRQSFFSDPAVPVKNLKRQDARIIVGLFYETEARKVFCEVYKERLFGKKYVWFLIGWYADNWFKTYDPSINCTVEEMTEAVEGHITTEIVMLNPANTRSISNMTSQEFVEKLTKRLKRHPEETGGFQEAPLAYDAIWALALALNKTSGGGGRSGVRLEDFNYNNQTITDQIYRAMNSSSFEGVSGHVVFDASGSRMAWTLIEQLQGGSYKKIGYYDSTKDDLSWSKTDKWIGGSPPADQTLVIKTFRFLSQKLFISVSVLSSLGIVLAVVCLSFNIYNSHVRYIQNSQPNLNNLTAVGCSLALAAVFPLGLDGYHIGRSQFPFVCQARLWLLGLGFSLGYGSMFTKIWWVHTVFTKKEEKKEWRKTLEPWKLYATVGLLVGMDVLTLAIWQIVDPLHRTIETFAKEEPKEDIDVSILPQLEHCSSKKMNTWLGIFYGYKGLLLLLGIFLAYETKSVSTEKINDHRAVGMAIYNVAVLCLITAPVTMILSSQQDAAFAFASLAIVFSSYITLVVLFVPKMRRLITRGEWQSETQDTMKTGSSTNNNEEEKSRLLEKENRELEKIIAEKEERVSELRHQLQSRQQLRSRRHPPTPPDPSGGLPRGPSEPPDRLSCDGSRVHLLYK"}, "[9]": {"molecular_target": "Norepinephrine transporter (Rattus norvegicus, UniProt Q9JIA2)"}, "[10]": {"molecular_target": "Chloride channel protein 1 (Rattus norvegicus, UniProt P35524)"}, "Protachykinin-1": {"molecular_target": "Protachykinin-1 (Rattus norvegicus, UniProt P06767)"}, "[11]": {"molecular_target": "5-hydroxytryptamine receptor 2A (Rattus norvegicus, UniProt P14842)"}, "[12]": {"molecular_target": "Alpha-2C adrenergic receptor (Rattus norvegicus, UniProt P22086)", "sequence (P22086 whole entry)": "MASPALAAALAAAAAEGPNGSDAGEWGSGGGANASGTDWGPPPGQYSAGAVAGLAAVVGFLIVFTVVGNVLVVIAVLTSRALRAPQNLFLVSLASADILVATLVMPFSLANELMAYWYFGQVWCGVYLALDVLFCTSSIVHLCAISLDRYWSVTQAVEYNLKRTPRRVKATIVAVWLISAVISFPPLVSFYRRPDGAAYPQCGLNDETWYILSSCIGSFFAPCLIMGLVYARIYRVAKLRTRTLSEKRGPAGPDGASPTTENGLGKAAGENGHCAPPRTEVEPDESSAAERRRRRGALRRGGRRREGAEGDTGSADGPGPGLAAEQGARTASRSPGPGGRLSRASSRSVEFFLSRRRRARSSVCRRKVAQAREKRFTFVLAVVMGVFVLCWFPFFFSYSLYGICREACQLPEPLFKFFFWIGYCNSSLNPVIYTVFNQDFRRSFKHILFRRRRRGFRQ"}, "Interleukin-18": {"molecular_target": "Interleukin-18 (Rattus norvegicus, UniProt P97636)"}, "[13]": {"molecular_target": "Potassium voltage-gated channel subfamily H member 8 (Rattus norvegicus, UniProt Q9QWS8)"}, "Somatostatin": {"molecular_target": "Somatostatin (Rattus norvegicus, UniProt P60042)"}, "[14]": {"molecular_target": "Arginine vasopressin-induced protein 1 (Rattus norvegicus, UniProt Q8VDA6)"}, "[15]": {"molecular_target": "Glutamate receptor ionotropic, kainate 1 (Rattus norvegicus, UniProt P22756)"}, "Adenosine kinase": {"molecular_target": "Adenosine kinase (Rattus norvegicus, UniProt Q64640)"}, "[16]": {"molecular_target": "Glycine amidinotransferase, mitochondrial (Rattus norvegicus, UniProt P50442)"}, "[17]": {"molecular_target": "Alpha-1A adrenergic receptor (Rattus norvegicus, UniProt P43140)"}, "[18]": {"molecular_target": "Glutamate receptor ionotropic, NMDA 1 (Rattus norvegicus, UniProt P35439)"}, "[19]": {"molecular_target": "Sigma non-opioid intracellular receptor 1 (Rattus norvegicus, UniProt Q9R0C9)"}}, "note": "Values joined by “and” are separate entries in the source; they are usually repeats but may differ in a detail not shown here. Identical values can stand only once."}
{"smiles": "Oc1cc2c(cc1O)[C@@H]1c3ccccc3CN[C@@H]1CC2", "note": "[(+/-)-trans-10,11-dihydroxy-5,6,6a,7,8,12b-hexahydrobenzo[a]phenanthridine]", "values": [{"measurement": "Ki", "setting": "5'-nucleotidase", "result": "> 10", "unit": "µM"}, {"measurement": "Ki", "setting": "[1]", "result": "> 10", "unit": "µM"}, {"measurement": "Ki", "setting": "[2]", "result": "> 10", "unit": "µM"}, {"measurement": "Ki", "setting": "[3]", "result": "> 10", "unit": "µM"}, {"measurement": "Ki", "setting": "[4]", "result": "> 10", "unit": "µM"}, {"measurement": "Ki", "setting": "[5]", "result": "> 10", "unit": "µM"}, {"measurement": "Ki", "setting": "Adenylate cyclase type 3", "result": "> 10", "unit": "µM"}, {"measurement": "Ki", "setting": "[6]", "result": "> 10", "unit": "µM"}, {"measurement": "Ki", "setting": "Beta-nerve growth factor", "result": "> 10", "unit": "µM"}, {"measurement": "Ki", "setting": "[7]", "result": "> 10", "unit": "µM"}, {"measurement": "Ki", "setting": "Natriuretic peptides A", "result": "> 10", "unit": "µM"}, {"measurement": "Ki", "setting": "Angiotensinogen", "result": "> 10", "unit": "µM"}, {"measurement": "Ki", "setting": "Glutamate receptor 3", "result": "> 10", "unit": "µM"}, {"measurement": "Ki", "setting": "VIP peptides", "result": "> 10", "unit": "µM"}, {"measurement": "Ki", "setting": "[8]", "result": "> 10", "unit": "µM"}, {"measurement": "Ki", "setting": "[9]", "result": "> 10", "unit": "µM"}, {"measurement": "Ki", "setting": "[10]", "result": "> 10", "unit": "µM"}, {"measurement": "Ki", "setting": "Protachykinin-1", "result": "> 10", "unit": "µM"}, {"measurement": "Ki", "setting": "[11]", "result": "> 10", "unit": "µM"}, {"measurement": "Ki", "setting": "[12]", "result": "0.23 µM and 1 µM"}, {"measurement": "Ki", "setting": "Interleukin-18", "result": "> 10", "unit": "µM"}, {"measurement": "Ki", "setting": "[13]", "result": "> 10", "unit": "µM"}, {"measurement": "Ki", "setting": "Somatostatin", "result": "> 10", "unit": "µM"}, {"measurement": "Ki", "setting": "[14]", "result": "> 10", "unit": "µM"}, {"measurement": "Ki", "setting": "[15]", "result": "> 10", "unit": "µM"}, {"measurement": "Ki", "setting": "Adenosine kinase", "result": "> 10", "unit": "µM"}, {"measurement": "Ki", "setting": "[16]", "result": "> 10", "unit": "µM"}, {"measurement": "Ki", "setting": "[17]", "result": "> 10", "unit": "µM"}, {"measurement": "Ki", "setting": "[18]", "result": "> 10", "unit": "µM"}, {"measurement": "Ki", "setting": "[19]", "result": "> 10", "unit": "µM"}]}
